# Values of other authors in patent US4801577A, “Nonapeptide and decapeptide analogs of LHRH useful as LHRH antagonists” (Syntex (U.S.A.) Inc., priority 1987, dated 1989).
# Test system: rat mast cells
# Conditions: rat mast cells in vitro
row,Substance,ED50 for histamine release [µg/mL]
1,"(N-Ac-D-Nal(2)^1, D-pCl-Phe^2, D-Trp^3, Arg^5, D-Tyr^6, D-Ala^10)LHRH",2
2,"(N-Ac-D-Nal(2)^1, D-pCl-Phe^2, D-Trp^3, D-Arg^6)LHRH",0.2
3,"(N-Ac-D-Nal(2)^1, D-αMe-pCl-Phe^2, D-Pal(3)^3, D-Arg^6, hArg(Et2)^8, D-Ala^10)LHRH",4.9
4,"(N-Ac-D-Nal(2)^1, pCl-Phe^2, D-Trp^3, D-Lys(iPr)^8,Lys(iPr)^6, D-Ala^10)LHRH",6.6
5,"LHRH: natural releasing hormone LHRH, a decapeptide comprised of naturally occurring amino acids",328
